Data on one compound can be found in US20100055133A1, “PHARMACEUTICAL COMPOSITIONS” (Biovail Laboratories International (Barbados) S.R.L, priority 2008, published 2010).

This data set is described as follows: Tetrabenazine solubility across the pH range 2-12 (Comparative Example 1). Type of data set: physicochemical. On the procedure:
The following example employs immediate-release tablets of tetrabenazine, in contrast to the controlled-release tablets of the present invention, to determine the solubility of tetrabenazine across the pH range 2-12.
The dissolution of tetrabenazine 12.5 mg and 25 mg immediate-release tablets was conducted in 0.1 M hydrochloric acid solution (pH 1.5).
The solubility of tetrabenazine was determined across the pH range 2-12 in water, adjusted with hydrochloric acid/sodium hydroxide as necessary and if feasible complete dissolutions at pH 7.0 and pH 12.
All samples were protected from light throughout the experiment.

For the compound `COc1cc2c(cc1OC)C1CC(=O)C(CC(C)C)CN1CC2` (stereo not drawn) [tetrabenazine, 1,3,4,6,7,11b-hexahydro-9,10-dimethoxy-3-(2-methylpropyl)-2H-benzo(a)quinolizin-2-one], the solubility result (between pH 4 and pH 12) is on record as “approximately 3.0 mg/100 ml”; the solubility result (pH 3) is “approximately 4.0 mg/100 ml”. Moreover, the solubility category entry reads like this: (between pH 4 and pH 12) “practically insoluble”; (pH 2) “slightly soluble”; (pH 3) “practically insoluble”; (pH range of 3-12) “practically insoluble”.
